Results published in patent US20060037085A1, “Animal model for fetal alcohol syndrome and methods of treatment” (priority 2004, published 2006).
Where “and” joins values, the source holds several entries; their conditions need not be identical. Equal entries are not always repeated. Where two headings read alike, the source gives them in different places. Marks after values point to notes of the source that are not given here.

Legend:
Xenopus laevis embryos [1] = conditions: for % body length of control / % width between eyes of control / N (normal) tadpoles / def (deformed) tadpoles: Xenopus laevis
Procedure: Embryo collection and experimental conditions for Xenopus model. […] In each experiment, embryos at the 2-4 cell stage were collected from the dejellied embryos. […] Each group was then incubated in a plastic petri dish containing 10 ml of 30% MMR, with or without ethanol for 12 hours. Embryos were allowed to develop for approximately 48 hours at room temperature (22° C.), until the control group reached tadpole stage (stage 45). The conditions used for producing eye defects (Peng et al, 2004), delayed gut development (Peng), microencephaly (Peng et al), and growth retardation (Peng) are shown in detail in the attached references.
(§1) Morphological measurements of microcephaly and growth retardation.
In a specific embodiment, embryos are exposed to at least about 0.4%, 0.5%, 0.6%, 0.7%, 0.8%, 0.9% or 1% alcohol.
Embryos were exposed to 0.6% ethanol at stage 9, 11, 13, 16, 18, 20, 23, 25 and 40 and were grown until the control “no ethanol” group reached tadpole stage. The morphology of the tadpoles was then examined (Table 2).
To determine the minimum duration required to produce fetal deformations, embryos at stage 13 were exposed to 0.6% of alcohol for 1, 2, 4, 6, 12, 24, 36 or 48 hours.

Xenopus laevis embryos [2] = test system: Xenopus laevis embryos
Procedure: as §1
Vitamin C treatment. Embryos at stage 13 (initial neural plate stage) were collected and divided into groups, each containing 15-20 embryos and incubated in a plastic petri dish containing MMR medium as stated above. Vitamin C, having a concentration of 100 μM, was added either concomitantly, 2 hours before, or 2 hours after the initiation of a 12-hour alcohol exposure. The tadpoles were fixed and measurements were made as stated above.

[3] = test system: Xenopus laevis tadpole brain; assay: Histological analysis of brain injury (coronal brain sections of tadpoles); conditions: tadpoles treated with alcohol
Description: Histological analysis of brain injury. Embryos were fixed in 2% paraformaldehyde, dehydrated, embedded in paraffin. The embryos were sectioned coronally through the head and stained with hematoxylin and eosin.
The EF-1α transcript was detected as an internal control for equal RNA load.

NF-κB = NF-κB reporter assay (pLuc-NF-κB) in whole embryos; format: in vivo, Xenopus laevis; conditions: 0.6% ethanol, recorded at stage 22
Procedure: NF-κB reporter assay. NF-κB luciferase reporter plasmid (pLuc-NF-κB) containing IL-6 promoter region with four repeats of NF-κB binding sites was used to measure NF-κB-mediated transcriptional activity (Li, 1997). Embryos at the two-cell stage were injected with pLuc-NF-κB, treated as indicated in the text, harvested, and lysed at stage 22. Protein concentration was determined. The luciferase activities were measured and calculated as relative luciferase activity per mg of protein.
In this embodiment, NF-κB activity was measured in the whole embryo by the reporter construct pLuc-NF-κB, which was injected into embryos at 2-cell stage.

[4] = test system: Pax6, Otx2, Sox2, Sox3, NCAM, Vent1; assay: RT-PCR of neural markers (animal caps or embryos); format: cell-based, Xenopus laevis; conditions: animal caps
Description: RT-PCR Animal caps were dissected from embryos at stage 8.5 and cultured in 67% Leibovitz's L-15 medium, pH 7.5 in the presence or absence of varied concentration of alcohol until stage 22. Total RNA was extracted from cultured animal caps with Trizol reagent (Invitrogen). Primer sets and PCR conditions for NCAM and Pax6 have been described in our previous reports (Peng, Neurobiol. Dis., 2004; Peng, J. Mol. Biol., 2004). PCR products were subject to electrophoresis on TBE gel and visualized by ethidium bromide staining.
Animal cap explant assay. […] Total RNA was extracted from animal caps or whole embryos using TRIZOL reagent (Invitrogen). The total RNA was reverse transcribed using the Superscript system (Invitrogen), and the first strand cDNA of the target gene amplified by PCR.
The Xenopus animal cap is composed of pluripotent cells that can be induced to form neural, mesodermal, or epidermal tissue, and is a useful tissue to assess the activity of various factors on neural development. Animal caps were treated with varied concentrations of alcohol as indicated.

Xenopus laevis embryos [5] = test system: Xenopus laevis embryos; remark: listed apart in the source
Procedure: Morphological measurements of microcephaly and growth retardation. The tadpoles were then fixed in 2% paraformaldehyde in 30% MMR, and their morphologies examined by light microscopy and photographs were taken at a fixed magnification for body length and head width measurements. The following criteria were recorded: (1) the number of normal/deformed/dead embryos; (2) length of the body measured between the tip of the jaw and the tip of the tail, and (3) width between the eyes measured at the widest level of that of the tadpoles.
In each experiment, embryos at 2-cell stage were collected and microinjected with the expression plasmid for either catalase (pCMS-CAT), xPax6 (pCS2+xPax6) or xSox2 (pCS2+xSox2) into each of the two blastomeres. After reaching stage 13, the embryos were divided into groups, each consisting of 20 embryos, which were then incubated in 10 ml of 30% Modified Marc's Ringer (MMR) for 12 hours until stage 22 in the presence or absence of varied concentrations of alcohol as indicated. As alcohol is volatile, the experimental media were replaced with fresh media every 4 hours during the course of alcohol treatment to minimize fluctuations in the alcohol concentration. At stage 22, embryos were transferred to 10 ml of 30% MMR without alcohol and allowed to grow until the control group reached the tadpole stage (stage 40 or 45). The tadpoles were then fixed and examined. Each experiment was repeated at least once with reproducible results.
The injected embryos were allowed to grow to stage 40, and their head size and body length were then compared to that of the control embryos injected with mock plasmid pCS2+ and without alcohol treatment. […] In a separate experiment, 100 pg pCS2+xSox2 or pCS2+ plasmid was injected into animal pole at two-cell stage embryos (n=50) and treated these embryos in 0.6% alcohol under the same conditions as described for Pax6.
As H2O2 is the major ROS produced by fetal alcohol exposure (Ozer et al., 2000), whether eliminating alcohol-induced H2O2 production can prevent microcephaly was examined by the protective effect of catalase. Human catalase was overexpressed in Xenopus embryos by microinjecting the two-cell stage embryos with 100 pg of catalase expression plasmid pCMS-CAT, and then treating them with or without 0.6% alcohol from stage 13 to 22.

Xenopus laevis embryos [6] = test system: Xenopus laevis embryos; remark: listed apart in the source
Procedure: Midneurala stage embryos were kept in either the control 10% MSS medium or the same medium supplemented with 0.5% alcohol. The embryos were allowed to grow until the control embryos (no alcohol) reached the tadpole stage (stages 45-46). All the embryos were then fixed and their body length and gut morphologies were recorded.
Embryos were injected with pCMS, pCMS-mtPRDX5, pCMS-cpPRDX5 or pCMS-Catalase expression plasmid, and then maintained in medium with or without 0.5% alcohol. When the tadpoles of control group reached stages 45-46, all the tadpoles were fixed and their gut developmental stages and body lengths were measured and used for the correlation studies. […] Embryos were injected with pCMS, pCMS-mtPRDX5, or pCMS-Catalase expression plasmid, and then treated with or without alcohol as indicated. The expression of the gut markers was determined by RT-PCR.
We also examined the correlation between the stage of gut development and body length in each individual tadpole.

[7] = pCMS-EGFP vector-injected embryos, 0.6% alcohol stage 13 to 22
[8] = 0.5% alcohol stage 13 to 22, uninjected
[9] = 0.5% alcohol, pCMS vector-injected embryos

CCO [Ethanol, ethanol]
dead (Xenopus laevis embryos [1]; 0.3% ethanol from stage 11 until control reached stage 45, 15 embryos per group): 2
dead (Xenopus laevis embryos [1]; 0.4% ethanol from stage 11 until control reached stage 45, 15 embryos per group): 1
dead (Xenopus laevis embryos [1]; 0.5% ethanol from stage 11 until control reached stage 45, 15 embryos per group): 2
mortality, head and body sizes vs control (Xenopus laevis embryos [1]; 0.6% alcohol, 12-hour exposure, stage 13-22): increased mortality and marked reduction in head and body sizes
dead (Xenopus laevis embryos [1]; 0.6% ethanol from stage 11 until control reached stage 45, 15 embryos per group): 1
dead (Xenopus laevis embryos [1]; 0.6% ethanol, initial exposure at Stage 11, until control reached tadpole stage): 3
dead (Xenopus laevis embryos [1]; 0.6% ethanol, initial exposure at Stage 13, until control reached tadpole stage): 2
dead (Xenopus laevis embryos [1]; 0.6% ethanol, initial exposure at Stage 16, until control reached tadpole stage): 1
dead (Xenopus laevis embryos [1]; 0.6% ethanol, initial exposure at Stage 18, until control reached tadpole stage): 1
dead (Xenopus laevis embryos [1]; 0.6% ethanol, initial exposure at Stage 20, until control reached tadpole stage): 2
dead (Xenopus laevis embryos [1]; 0.6% ethanol, initial exposure at Stage 23, until control reached tadpole stage): 1
dead (Xenopus laevis embryos [1]; 1.0% ethanol from stage 11 until control reached stage 45, 15 embryos per group): 3
dead (Xenopus laevis embryos [1]; 1.5% ethanol from stage 11 until control reached stage 45, 15 embryos per group): 4
dead (Xenopus laevis embryos [1]; 2.0% ethanol from stage 11 until control reached stage 45, 15 embryos per group): 6
% body length of control (Xenopus laevis embryos [1]; in vivo, 0.3 %): 95 ± 54%
% width between eyes of control (Xenopus laevis embryos [1]; in vivo, 0.3 %): 84 ± 15%
N (normal) tadpoles (Xenopus laevis embryos [1]; in vivo, 0.3 %): 11
def (deformed) tadpoles (Xenopus laevis embryos [1]; in vivo, 0.3 %): 3
% body length of control (Xenopus laevis embryos [1]; in vivo, 0.4 %): 90 ± 41%
% width between eyes of control (Xenopus laevis embryos [1]; in vivo, 0.4 %): 81 ± 11 %
N (normal) tadpoles (Xenopus laevis embryos [1]; in vivo, 0.4 %): 10
def (deformed) tadpoles (Xenopus laevis embryos [1]; in vivo, 0.4 %): 4
% body length of control (Xenopus laevis embryos [1]; in vivo, 0.5 %): 85 ± 57 %
% width between eyes of control (Xenopus laevis embryos [1]; in vivo, 0.5 %): 75 ± 09 %
N (normal) tadpoles (Xenopus laevis embryos [1]; in vivo, 0.5 %): 7
def (deformed) tadpoles (Xenopus laevis embryos [1]; in vivo, 0.5 %): 6
% body length of control (Xenopus laevis embryos [1]; in vivo, 0.6 %): 74 ± 34 %
% width between eyes of control (Xenopus laevis embryos [1]; in vivo, 0.6 %): 70 ± 18 %
N (normal) tadpoles (Xenopus laevis embryos [1]; in vivo, 0.6 %): 5
def (deformed) tadpoles (Xenopus laevis embryos [1]; in vivo, 0.6 %): 9
% body length of control (Xenopus laevis embryos [1]; in vivo, 1 %): 70 ± 39 %
% width between eyes of control (Xenopus laevis embryos [1]; in vivo, 1 %): 69 ± 21 %
N (normal) tadpoles (Xenopus laevis embryos [1]; in vivo, 1 %): 2
def (deformed) tadpoles (Xenopus laevis embryos [1]; in vivo, 1 %): 10
% body length of control (Xenopus laevis embryos [1]; in vivo, 1.5 %): 67 ± 51 %
% width between eyes of control (Xenopus laevis embryos [1]; in vivo, 1.5 %): 67 ± 17 %
N (normal) tadpoles (Xenopus laevis embryos [1]; in vivo, 1.5 %): 1
def (deformed) tadpoles (Xenopus laevis embryos [1]; in vivo, 1.5 %): 10
% body length of control (Xenopus laevis embryos [1]; in vivo, 2 %): 65 ± 58 %
% width between eyes of control (Xenopus laevis embryos [1]; in vivo, 2 %): 67 ± 23 %
N (normal) tadpoles (Xenopus laevis embryos [1]; in vivo, 2 %): 0
def (deformed) tadpoles (Xenopus laevis embryos [1]; in vivo, 2 %): 9
effect on viability and morphology of the tadpoles (Xenopus laevis embryos [1]; in vivo): no significant effect in either the viability or the morphology of the tadpoles
teratogenic effect (Xenopus laevis embryos [1]; in vivo): resistant to the teratogenic effect of alcohol
mortality rate (Xenopus laevis embryos [1]; stage 40 tadpoles exposed to 0.6% alcohol): 80%
dead (Xenopus laevis embryos [2]; 0.6% EtOH for 12 hours from stage 13, 15 embryos): 2
Alive (Xenopus laevis embryos [2]; Xenopus laevis, in vivo, 12 h): 13
Body length (Xenopus laevis embryos [2]; Xenopus laevis, in vivo, 12 h): 9.25 ± 010^b mm
Eye distance (Xenopus laevis embryos [2]; Xenopus laevis, in vivo, 12 h): 1.63 ± 005^b mm
size of the forebrain area vs control [3]: reduction in size of the forebrain area
NF-κB activity in the embryo (luciferase reporter) (NF-κB): increased
Otx2, Sox2, and Sox3 expression ([4]; alcohol 0.1% to 0.6%): less sensitive to alcohol
expression of the general ventral marker Vent1 ([4]; alcohol): not seriously affected
alive (Total/alive) (Xenopus laevis embryos [5]; Xenopus laevis, in vivo, 12 h): 40/32
Body length (% of control) (Xenopus laevis embryos [5]; [7]): 84 % of control and 83.7 ± 10.1^a % of control
Distance between eyes (% of control) (Xenopus laevis embryos [5]; [7]): 81 % of control and 81.3 ± 14^a % of control
frequency of noted microcephaly and growth retardation (Xenopus laevis embryos [5]; pCS2+ (mock plasmid) injected group, 0.6% alcohol): 52%
Body length (% no alcohol control) (Xenopus laevis embryos [6]; [8]): 87 ± 2.7 % no alcohol control
Number of embryos in gut developmental stage 43 (Xenopus laevis embryos [6]; [8]): 8
Number of embryos in gut developmental stage 44 (Xenopus laevis embryos [6]; [8]): 7
Number of embryos in gut developmental stage 45 (Xenopus laevis embryos [6]; [8]): 2
Number of embryos in gut developmental stage 46 (Xenopus laevis embryos [6]; [8]): 0
Number of embryos in gut developmental stage 42 (Xenopus laevis embryos [6]; 0.5% alcohol stage 13 to 22, uninjected, scored when controls reached stages 45-46): 3
Body length (% no alcohol control) (Xenopus laevis embryos [6]; [9]): 85 ± 3.1 % no alcohol control
Number of embryos in gut developmental stage 42 (Xenopus laevis embryos [6]; [9]): 3
Number of embryos in gut developmental stage 43 (Xenopus laevis embryos [6]; [9]): 7
Number of embryos in gut developmental stage 44 (Xenopus laevis embryos [6]; [9]): 9
Number of embryos in gut developmental stage 45 (Xenopus laevis embryos [6]; [9]): 1
Number of embryos in gut developmental stage 46 (Xenopus laevis embryos [6]; [9]): 0
outcome of sustained alcohol exposure (Xenopus laevis embryos [6]; sustained exposure of alcohol from stage 13): caused the death of tadpoles at around stages 45-50
gut maturation (looping pattern of the tadpole gut) (Xenopus laevis embryos [6]; transient 0.5% alcohol exposure between stages 13-22): significant delay in gut maturation
gut morphology, alcohol-treated vs control groups (Xenopus laevis embryos [6]; transient alcohol exposure, gut examined at stage 60): no difference
